Source: patent US20050004161A1 (published 2005)

Work on `Cn1cc(C(=O)NCc2ccc(Cl)cc2)c(=O)c2cc(COCC[C@@H](O)c3ccccc3)sc21` yielded a melting point of 154.5 to 155.5 °C.
